# Measurements published in US7608619B2, “Substituted oxazole compounds with analgesic activity” (Gruenenthal GmbH, priority 2005, dated 2009).
# Molecular target: T1, human μ-opiate receptor (Homo sapiens, UniProt P35372)
# T1 construct: purchased Nen company, Zaventem, Belgium RB-HOM; host or cells: CHO-K1 cells (membrane preparation)
# Experiment: Affinity for the human μ-opiate receptor ([3H]-naloxone displacement, SPA, CHO-K1 membrane preparation)
# Conditions: test substance 1 μmole/l; displacement of 1 nmole/l [3H]-naloxone; percentage inhibition of the specific binding
# Protocol: Method for Determining the Affinity for the Human μ-Opiate Receptor
# The receptor affinity for the human μ-opiate receptor is determined in a homogeneous batch in microtiter plates. For this purpose dilution series of the substances to be tested are incubated for 90 minutes at room temperature with a receptor membrane preparation (15-40 μg protein/250 μl incubation batch) of CHO-K1 cells, which express the human μ-opiate receptor (RB-HOM receptor membrane preparation from the Nen company, Zaventem, Belgium), in the presence of 1 nmole/l of the radioactive ligand [^3H]-naloxone (NET719, Nen company, Zaventem, Belgium) and 1 mg WGA-SPA beads (wheat germ agglutinin SPA beads from Amersham/Pharmacia, Freiburg, Germany) in a total volume of 250 μl. 50 mmole/l of Tris-HCl supplemented with 0.05% sodium azide and with 0.06% bovine serum albumin is used as incubation buffer. In order to determine the non-specific binding, 25 μmole/l of naloxone is additionally added. After the end of the 90 minutes' incubation time the microtiter plates are centrifuged for 20 minutes at 1000 g and the radioactivity is measured in a beta counter (Microbeta-Trilux, PerkinElmer Wallac, Freiburg, Germany). The percentage displacement of the radioactive ligand from its binding to the human μ-opiate receptor at a concentration of the test substances of 1 μmole/l is determined and is given as percentage inhibition of the specific binding.
# T1 sequence (P35372 whole entry): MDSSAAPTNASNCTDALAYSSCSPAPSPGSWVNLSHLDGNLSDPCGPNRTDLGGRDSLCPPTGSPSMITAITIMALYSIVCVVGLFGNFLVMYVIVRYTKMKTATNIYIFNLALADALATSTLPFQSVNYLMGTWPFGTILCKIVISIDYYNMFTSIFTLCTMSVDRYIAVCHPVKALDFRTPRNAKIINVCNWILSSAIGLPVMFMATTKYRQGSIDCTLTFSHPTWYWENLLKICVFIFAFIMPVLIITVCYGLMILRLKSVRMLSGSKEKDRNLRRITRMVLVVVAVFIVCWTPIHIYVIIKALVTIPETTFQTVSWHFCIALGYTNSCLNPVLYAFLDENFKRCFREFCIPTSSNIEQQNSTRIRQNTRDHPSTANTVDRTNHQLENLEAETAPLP
row,Compound,"μ-opioid receptor, % inhibition [1 μM] [%]"
1,"CN(Cc1ccccc1)c1oc(C(C2CCC(C(c3ccc(Cl)cc3)N(C)C)CC2)N(C)c2ccccc2)nc1Cc1ccccc1 (centres unmarked) [compound 22, Benzyl-{4-benzyl-2-[{4-[(4-chlorophenyl)-dimethylaminomethyl]-cyclohexyl}-(methylphenylamine)-methyl]-oxazol-5-yl}-methylamine]",64

# Same assay, conditions: test substance 1 μmole/l; displacement of 1 nmole/l [3H]-naloxone; percentage inhibition of the specific binding; read-out: μ-opioid receptor, % inhibition [1 μM]
row,Compound,inhibition at 1 µM [%]
1,"CN(C)C(c1ccc(F)cc1)C1CCC(C(c2nc(Cc3ccccc3)c(N3CCCC3)o2)N2CCCCC2)CC1 (centres unmarked) [compound 17, [{4-[(4-benzyl-5-pyrrolidin-1-yl-oxazol-2-yl)-piperidin-1-yl-methyl]-cyclohexyl}-(4-fluorophenyl)-methyl]-dimethylamine]",76
2,"CN(C)C(c1ccc(F)cc1)C1CCC(C(c2nc(Cc3ccccc3)c(N3CCOCC3)o2)N(C)c2ccccc2)CC1 (centres unmarked) [compound 18, ((4-benzyl-5-morpholin-4-yl-oxazol-2-yl)-{4-[dimethylamino-(4-fluorophenyl)-methyl]-cyclohexyl}-methyl)-methylphenylamine]",65
3,"CC1CCN(c2oc(C(C3CCC(C(c4ccc(F)cc4)N(C)C)CC3)N(C)c3ccccc3)nc2Cc2ccccc2)CC1 (centres unmarked) [compound 19, ([4-benzyl-5-(4-methylpiperidin-1-yl)-oxazol-2-yl]-{4-[dimethylamino-(4-fluorophenyl)-methyl]-cyclohexyl}-methyl)-methylphenylamine]",63
4,"CCN(CC)C(c1nc(Cc2ccccc2)c(N2CCC(C)CC2)o1)C1CCC(C(c2ccc(Cl)cc2)N(C)C)CC1 (centres unmarked) [compound 20, ([4-benzyl-5-(4-methylpiperidin-1-yl)-oxazol-2-yl]-{4-[(4-chlorophenyl)-dimethylaminomethyl]-cyclohexyl}-methyl)-diethylamine]",63
5,"CCN(CC)C(c1nc(Cc2ccccc2)c(N(C)Cc2ccccc2)o1)C1CCC(C(c2ccc(Cl)cc2)N(C)C)CC1 (centres unmarked) [compound 21, Benzyl-[4-benzyl-2-({4-[(4-chlorophenyl)-dimethylaminomethyl]-cyclohexyl}-diethylaminomethyl)-oxazol-5-yl]-methylamine]",72
6,"CN(C)C(c1cccs1)C1CCC(C(c2nc(Cc3ccccc3)c(N3CCC(Cc4ccccc4)CC3)o2)N2CCCCC2)CC1 (centres unmarked) [compound 23, [(4-{[4-benzyl-5-(4-benzyl-piperidin-1-yl)-oxazol-2-yl]-piperidin-1-yl-methyl}-cyclohexyl)-thiophen-2-yl-methyl]-dimethylamine]",70
7,"CC1CCN(c2oc(C(C3CCC(C(c4cccs4)N(C)C)CC3)N3CCCCC3)nc2Cc2ccccc2)CC1 (centres unmarked) [compound 24, [(4-{[4-benzyl-5-(4-methylpiperidin-1-yl)-oxazol-2-yl]-piperidin-1-yl-methyl}-cyclohexyl)-thiophen-2-yl-methyl]-dimethylamine]",70
8,"CN(Cc1ccccc1)c1oc(C(C2CCC(C(c3cccs3)N(C)C)CC2)N2CCCCC2)nc1Cc1ccccc1 (centres unmarked) [compound 25, Benzyl-(4-benzyl-2-{[4-(dimethylamino-thiophen-2-yl-methyl)-cyclohexyl]-piperidin-1-yl-methyl}-oxazol-5-yl)-methylamine]",80
9,"CN(C)C(c1cccs1)C1CCC(C(c2nc(Cc3ccccc3)c(N3CCN(c4ccccc4)CC3)o2)N2CCCCC2)CC1 (centres unmarked) [compound 26, [(4-{[4-benzyl-5-(4-phenylpiperazin-1-yl)-oxazol-2-yl]-piperidin-1-yl-methyl}-cyclohexyl)-thiophen-2-yl-methyl]-dimethylamine]",85
10,"CCN(CC)C(c1nc(Cc2ccccc2)c(N2CCC(Cc3ccccc3)CC2)o1)C1CCC(C(c2cccs2)N(C)C)CC1 (centres unmarked) [compound 27, {[4-benzyl-5-(4-benzyl-piperidin-1-yl)-oxazol-2-yl]-[4-(dimethylamino-thiophen-2-yl-methyl)-cyclohexyl]-methyl}-diethylamine]",78
